Patent publication US4870002A, “Method of prevention of oxidative injury to cells” (priority 1985, dated 1989)

Key:
Novikoff hepatoma [1] = experiment: Enhancement of tumor growth by aminotyrosine after dilute hepatoma cell challenge; type: in vivo, rat; settings: 1 mg i.p. daily for five days; ninth day following inoculation; four adult male rats; controls no tumor
Experimental: In order to evaluate whether or not endogenous peroxidases play a role in the natural resistance to neoplastic growth, we injected some rats with a potent inhibitor of the cytotoxic activity of peroxidases and subsequently challanged the animals with a suspension of hepatoma cells.
Four adult male rats were injected i.p. with 1 mg of 3-aminotyrosine in 1 ml of water. Four control rats were injected with 1 ml of water. The following day all rats were injected with 1 ml of a dilute Novikoff hepatoma cell suspension; the number of cells being normally insufficient to produce tumor growth. On the same day, an additional 1 mg aminotyrosine was administered to the rats that received the inhibitor the previous day and this was repeated for three more days. The four control rats similarly received water injections.
On the ninth day following the inoculation with tumor, all rats were sacrificed and examined for the presence of tumor. No tumor was present in any of the control animals.

Novikoff hepatoma [2] = experiment: Effect of peroxidase inhibitor on ICCOPS-promoted hepatoma regression; type: in vivo, rat
Experimental: Four of the animals were also injected with 100 μg of 3-aminotyrosine.

## Nc1cc(C[C@H](N)C(=O)O)ccc1O [3-aminotyrosine, 3-amino-L-tyrosine]
Novikoff hepatoma [1]
  presence of tumor, in words: had developed tumor growth
Novikoff hepatoma [2]; 100 μg injected into ICCOPS-treated hepatoma-bearing rats
  effect on the action of ICCOPS, in words: inhibited the action of ICCOPS
Novikoff hepatoma [2]; four rats receiving ICCOPS and 100 μg 3-aminotyrosine
  outcome, in words: eventually died of the tumor
